From patent US10722520B2, “Heterocyclic compounds and their use in preventing or treating bacterial infections” (MUTABILIS, priority 2016, dated 2020)

What was measured:
SHV-1 = SHV-1 (Klebsiella pneumoniae, UniProt P0AD64)
K. pneumoniae UFR77 = assay: MIC of ceftazidime (CAZ) at fixed concentration of compound (synergy), broth microdilution; type: cell-based; conditions: footnote *: MIC of ceftazidime with compound fixed at 8 μg/mL; strain UFR77 (K. pneumoniae)
How it was run: (§1)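 Step one, log-phase suspension set to 5×10^5 cfu/mL final in CA-MHB. Step two, incubation at 35° C under ambient air for 16-20 h. Step three, visual reading of the lowest growth-free concentration as MIC.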

E. coli UFR18 = assay: as above; type: cell-based; conditions: footnote *: MIC of ceftazidime with compound fixed at 8 μg/mL; strain UFR18 (E. coli)
How it was run: as §1

K. pneumoniae 200047 = assay: as above; type: cell-based; conditions: footnote *: MIC of ceftazidime with compound fixed at 8 μg/mL; strain 200047 (K. pneumoniae)
How it was run: as §1

E. cloacae UFR85 = assay: as above; type: cell-based; conditions: footnote *: MIC of ceftazidime with compound fixed at 8 μg/mL; strain UFR85 (E. cloacae)
How it was run: as §1

E. coli UFR39 = assay: as above; type: cell-based; conditions: footnote *: MIC of ceftazidime with compound fixed at 8 μg/mL; strain UFR39 (E. coli)
How it was run: as §1

K. pneumoniae 6299 = assay: as above; type: cell-based; conditions: footnote *: MIC of ceftazidime with compound fixed at 8 μg/mL; strain 6299 (K. pneumoniae)
How it was run: as §1

K. pneumoniae 160143 = assay: as above; type: cell-based; conditions: footnote *: MIC of ceftazidime with compound fixed at 8 μg/mL; strain 160143 (K. pneumoniae)
How it was run: as §1

E. coli UFR41 = assay: as above; type: cell-based; conditions: footnote *: MIC of ceftazidime with compound fixed at 8 μg/mL; strain UFR41 (E. coli)
How it was run: as §1

K. pneumoniae UFR24 = assay: as above; type: cell-based; conditions: footnote *: MIC of ceftazidime with compound fixed at 8 μg/mL; strain UFR24 (K. pneumoniae)
How it was run: as §1

E. coli 190317 = assay: as above; type: cell-based; conditions: footnote *: MIC of ceftazidime with compound fixed at 8 μg/mL; strain 190317 (E. coli)
How it was run: as §1

E. cloacae UFR70 = assay: as above; type: cell-based; conditions: footnote *: MIC of ceftazidime with compound fixed at 8 μg/mL; strain UFR70 (E. cloacae)
How it was run: as §1

E. coli UFR61O = assay: as above; type: cell-based; conditions: footnote *: MIC of ceftazidime with compound fixed at 8 μg/mL; strain UFR61O (E. coli)
How it was run: as §1

K. pneumoniae UFR68 = assay: as above; type: cell-based; conditions: footnote *: MIC of ceftazidime with compound fixed at 8 μg/mL; strain UFR68 (K. pneumoniae)
How it was run: as §1

E. coli RGN238 = assay: as above; type: cell-based; conditions: footnote *: MIC of ceftazidime with compound fixed at 8 μg/mL; strain RGN238 (E. coli)
How it was run: as §1

K. oxytoca UFR21 = assay: as above; type: cell-based; conditions: footnote *: MIC of ceftazidime with compound fixed at 8 μg/mL; strain UFR21 (K. oxytoca)
How it was run: as §1

K. pneumoniae BAA-1898 = assay: as above; type: cell-based; conditions: footnote *: MIC of ceftazidime with compound fixed at 8 μg/mL; strain BAA-1898 (K. pneumoniae)
How it was run: as §1

E. cloacae UFR51 = assay: as above; type: cell-based; conditions: footnote *: MIC of ceftazidime with compound fixed at 8 μg/mL; strain UFR51 (E. cloacae)
How it was run: as §1

E. coli UFR74 = assay: as above; type: cell-based; conditions: footnote *: MIC of ceftazidime with compound fixed at 8 μg/mL; strain UFR74 (E. coli)
How it was run: as §1

E. cloacae P99 = assay: as above; type: cell-based; conditions: footnote *: MIC of ceftazidime with compound fixed at 8 μg/mL; strain P99 (E. cloacae)
How it was run: as §1

E. coli 131119 = assay: as above; type: cell-based; conditions: footnote *: MIC of ceftazidime with compound fixed at 8 μg/mL; strain 131119 (E. coli)
How it was run: as §1

E. cloacae 260508 = assay: as above; type: cell-based; conditions: footnote *: MIC of ceftazidime with compound fixed at 8 μg/mL; strain 260508 (E. cloacae)
How it was run: as §1

P. aeruginosa CIP107051 = assay: as above; type: cell-based; conditions: footnote *: MIC of ceftazidime with compound fixed at 8 μg/mL; strain CIP107051 (P. aeruginosa)
How it was run: as §1

E. coli UFR32 = assay: as above; type: cell-based; conditions: footnote *: MIC of ceftazidime with compound fixed at 8 μg/mL; strain UFR32 (E. coli)
How it was run: as §1

OXA-48 = OXA-48 (Klebsiella pneumoniae, UniProt Q6XEC0)
OXA-48, sequence (Q6XEC0 23-265, looked up, species assumed): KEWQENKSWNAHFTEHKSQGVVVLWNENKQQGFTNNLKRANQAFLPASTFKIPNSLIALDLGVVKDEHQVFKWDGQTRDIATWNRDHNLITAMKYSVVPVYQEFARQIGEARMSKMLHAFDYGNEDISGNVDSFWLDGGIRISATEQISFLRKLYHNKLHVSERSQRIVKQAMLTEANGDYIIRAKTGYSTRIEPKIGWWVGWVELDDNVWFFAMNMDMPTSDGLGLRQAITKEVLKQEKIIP

KPC-2 = KPC-2 (Klebsiella pneumoniae, UniProt Q9F663)
KPC-2, sequence (Q9F663 25-293, looked up, species assumed): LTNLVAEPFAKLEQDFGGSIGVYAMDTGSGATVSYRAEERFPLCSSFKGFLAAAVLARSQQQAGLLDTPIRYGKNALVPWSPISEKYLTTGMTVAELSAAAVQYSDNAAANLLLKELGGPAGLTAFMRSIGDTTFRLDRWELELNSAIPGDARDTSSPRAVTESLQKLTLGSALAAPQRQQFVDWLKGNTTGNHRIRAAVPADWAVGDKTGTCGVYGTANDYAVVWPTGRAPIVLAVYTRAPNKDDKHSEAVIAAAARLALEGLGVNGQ

TEM-1 = TEM-1 (Escherichia coli, UniProt P62593)
TEM-1, sequence (P62593 24-286 limits assumed): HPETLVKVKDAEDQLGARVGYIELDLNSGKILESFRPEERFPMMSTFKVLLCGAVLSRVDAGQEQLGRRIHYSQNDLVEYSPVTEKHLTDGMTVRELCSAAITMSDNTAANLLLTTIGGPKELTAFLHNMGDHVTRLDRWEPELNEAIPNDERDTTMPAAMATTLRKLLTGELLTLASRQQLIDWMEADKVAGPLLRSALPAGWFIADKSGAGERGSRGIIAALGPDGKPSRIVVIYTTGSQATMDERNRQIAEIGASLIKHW

CTX-M-15 = CTX-M-15 (Escherichia coli, UniProt Q9EXV5)
CTX-M-15, sequence (Q9EXV5 29-291, species assumed): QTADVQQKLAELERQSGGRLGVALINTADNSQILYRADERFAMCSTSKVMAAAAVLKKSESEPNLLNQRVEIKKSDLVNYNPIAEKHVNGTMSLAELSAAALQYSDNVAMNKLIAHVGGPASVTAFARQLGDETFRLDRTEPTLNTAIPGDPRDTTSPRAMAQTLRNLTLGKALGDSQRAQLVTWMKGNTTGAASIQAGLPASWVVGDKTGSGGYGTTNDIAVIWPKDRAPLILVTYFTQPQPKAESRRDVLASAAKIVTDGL

OXA-15 = OXA-15 (Pseudomonas aeruginosa, UniProt Q51574); assay: biochemical
OXA-15, sequence (Q51574 22-275): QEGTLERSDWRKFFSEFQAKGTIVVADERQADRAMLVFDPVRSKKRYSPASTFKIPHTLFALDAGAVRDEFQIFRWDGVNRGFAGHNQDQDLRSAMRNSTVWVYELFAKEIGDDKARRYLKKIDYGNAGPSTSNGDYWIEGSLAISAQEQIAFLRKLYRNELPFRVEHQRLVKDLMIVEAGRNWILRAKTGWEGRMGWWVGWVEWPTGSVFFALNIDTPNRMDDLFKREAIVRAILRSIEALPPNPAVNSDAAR

CMY-37 = CMY-37 (Citrobacter freundii, UniProt P05193); conditions: read-out: IC50 β-lactamase CMY-37
CMY-37, sequence (P05193 21-381 limits assumed): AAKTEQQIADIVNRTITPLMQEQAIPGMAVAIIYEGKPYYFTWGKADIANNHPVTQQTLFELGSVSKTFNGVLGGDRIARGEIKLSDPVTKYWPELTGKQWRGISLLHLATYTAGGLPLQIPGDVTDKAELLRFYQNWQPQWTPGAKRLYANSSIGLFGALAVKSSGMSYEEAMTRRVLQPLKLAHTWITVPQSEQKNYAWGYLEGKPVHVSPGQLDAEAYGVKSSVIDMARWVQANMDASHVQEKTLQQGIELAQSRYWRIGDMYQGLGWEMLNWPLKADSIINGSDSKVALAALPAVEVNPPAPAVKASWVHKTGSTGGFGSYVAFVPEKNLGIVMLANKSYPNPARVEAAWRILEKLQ

SHV-1, sequence (P0AD64 22-286): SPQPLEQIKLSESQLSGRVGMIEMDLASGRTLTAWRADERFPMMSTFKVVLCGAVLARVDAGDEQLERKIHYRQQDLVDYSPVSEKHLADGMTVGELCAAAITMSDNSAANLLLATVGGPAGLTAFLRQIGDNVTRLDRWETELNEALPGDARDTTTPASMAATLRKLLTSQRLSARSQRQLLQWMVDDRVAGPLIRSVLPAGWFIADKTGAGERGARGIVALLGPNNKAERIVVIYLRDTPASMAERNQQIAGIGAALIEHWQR

SMILES: O=C1N2CC(n3cncn3)=CC(C2)N1OS(=O)(=O)[O-].[Na+] (stereo not drawn) [Example 5, sodium [7-oxo-3-(1,2,4-triazol-1-yl)-1,6-diazabicyclo[3.2.1]oct-3-en-6-yl]sulfate]
- IC50 (SHV-1): 4.4 nM
- MIC combination of CAZ and compound at 8 μg/mL (K. pneumoniae UFR77): <0.25
- MIC combination of CAZ and compound at 8 μg/mL (E. coli UFR18): <0.25
- MIC combination of CAZ and compound at 8 μg/mL (K. pneumoniae 200047): <0.25
- MIC combination of CAZ and compound at 8 μg/mL (E. cloacae UFR85): <0.25
- MIC combination of CAZ and compound at 8 μg/mL (E. coli UFR39): <0.25
- MIC combination of CAZ and compound at 8 μg/mL (K. pneumoniae 6299): <0.25
- MIC combination of CAZ and compound at 8 μg/mL (K. pneumoniae 160143): <0.25
- MIC combination of CAZ and compound at 8 μg/mL (E. coli UFR41): <0.25
- MIC combination of CAZ and compound at 8 μg/mL (K. pneumoniae UFR24): <0.25
- MIC combination of CAZ and compound at 8 μg/mL (E. coli 190317): <0.25
- MIC combination of CAZ and compound at 8 μg/mL (E. cloacae UFR70): <0.25
- MIC combination of CAZ and compound at 8 μg/mL (E. coli UFR61O): <0.25
- MIC combination of CAZ and compound at 8 μg/mL (K. pneumoniae UFR68): <0.25
- MIC combination of CAZ and compound at 8 μg/mL (E. coli RGN238): <0.25
- MIC combination of CAZ and compound at 8 μg/mL (K. oxytoca UFR21): <0.25
- MIC combination of CAZ and compound at 8 μg/mL (K. pneumoniae BAA-1898): <0.25
- MIC combination of CAZ and compound at 8 μg/mL (E. cloacae UFR51): <0.25
- MIC combination of CAZ and compound at 8 μg/mL (E. coli UFR74): <0.25
- MIC combination of CAZ and compound at 8 μg/mL (E. cloacae P99): <0.25
- MIC combination of CAZ and compound at 8 μg/mL (E. coli 131119): <0.25
- MIC combination of CAZ and compound at 8 μg/mL (E. cloacae 260508): <0.25
- MIC combination of CAZ and compound at 8 μg/mL (P. aeruginosa CIP107051): 4
- MIC combination of CAZ and compound at 8 μg/mL (E. coli UFR32): <0.25
- IC50 (OXA-48): 0.45 nM
- IC50 (KPC-2): 3 nM
- IC50 (TEM-1): 0.8 nM
- IC50 (CTX-M-15): 0.66 nM
- IC50 (OXA-15): 27 nM
- IC50 (CMY-37): 36 nM
